In US20160356723A1, “Light-Up Probes Based On Fluorogens With Aggregation Induced Emission Characteristics For Cellular Imaging And Drug Screening” (NATIONAL UNIVERSITY OF SINGAPORE, priority 2014, published 2016):

Columns and labels:
MDA-MB-231 cells = assay: MTT cytotoxicity, MDA-MB-231; type: cell-based; conditions: different concentrations, 72 h
From the text: (§1) We next studied the cytotoxicity profile of the prodrug to MDA-MB-231 and MCF-7 cells by a MTT assay.

MCF-7 cells [1] = assay: MTT cytotoxicity, MCF-7; type: cell-based; conditions: 72 h
Description: 3-(4,5-Dimethythiazol-2-yl)-2,5-diphenyltetrazolium bromide (MTT) assays were used to assess the metabolic activity of U87-MG and MCF-7 cancer cells. The cells were seeded in 96-well plates (Costar, Ill., USA) at an intensity of 4×10^4 cells mL^−1. After 24 h incubation, the medium was replaced by the probe suspension at different concentration of the prodrug and incubated at 37° C. After the designated time intervals, the wells were washed twice with 1×PBS buffer, and 100 μL of freshly prepared MTT (0.5 mg mL^−1) solution in culture medium was added into each well. The MTT medium solution was carefully removed after 3 h incubation in the incubator at 37° C. DMSO (100 μL) was then added into each well and the plate was gently shaken to dissolve all the precipitates formed. The absorbance of MTT at 570 nm was monitored by the microplate reader (Genios Tecan). Cell viability was expressed by the ratio of absorbance of the cells incubated with probe suspension to that of the cells incubated with culture medium only.
We next compared the relationship between the apoptosis induced fluorescence intensity change in cells and the cytotoxicity profile of the prodrug using both U87-MG and MCF-7 cells as an example. The fluorescence intensities at 480 nm are monitored upon excitation at 365 nm after incubation the cells for 6 h. The cytotoxicity of the cells was evaluated by a standard MTT method after the incubation for 72 h. In this experiment, we studied this effect using both U87-MG and MCF-7 cells. […] Also, we can find that higher cell viability of the cells will show lower fluorescence intensity which means low degrees of cell apoptosis. For example, when both cells are treated with 5 μM TPS-DEVD-Pt-cRGD, the cell viability is only 31% for U87-MG cells after 72 h incubation, while in sharp contrast, the cell viability is 92% for MCF-7 cells at the same conditions.
as §1

ALP = ALP detection in solution; type: biochemical; conditions: emission maximum changes from 520 nm to 640 nm
From the text: The emission maximum of the solution changes from 520 nm to 640 nm in the presence of ALP.

[2] = system: lysozyme, pepsin, bovine serum albumin (BSA) and trypsin; assay: Selectivity of fluorescence response against other proteins; type: biochemical; conditions: 10 μM ascorbic acid pretreated probe, identical conditions as caspase-3
Description: (§2) To study the selectivity of the prodrug, we incubated ascorbic acid pretreated TPS-DEVD-Pt-cRGD (10 μM) with several proteins, including lysozyme, pepsin, bovine serum albumin (BSA) and trypsin under identical conditions. […] As there are many different kinds of proteins or enzymes inside the cells, we further obtained the cellular lysate of normal and apoptotic U87-MG cells, which were pretreated with commonly used cell apoptosis inducer staurosporine (STS, 2 μM) to activate the caspase-3 enzyme in the cells. The cell lysates were directly incubated with TPS-DEVD-Pt-cRGD (5 μM) and the fluorescence intensity at 485 nm was monitored over time.

293T cells = assay: Confocal imaging of drug-induced apoptosis, 293T; type: cell-based; conditions: 5 μM probe, 6 h incubation, low integrin expression
Description: (§3) U87-MG, MCF-7 and 293T cells were cultured in the chambers (LAB-TEK, Chambered Coverglass System) at 37° C. After 80% confluence, the culture medium was removed and washed twice with PBS buffer. The probe in DMSO stock solution was then added to the chamber to reach a final concentration of 5 μM. In some experiments, the cells were pre-incubated with media containing cRGD (50 μM) or inhibitor (5 μM) prior to prodrug incubation. After incubation the prodrug at 37° C. for 2 h, the medium was replaced with fresh medium, after that the cells were washed twice with ice-cold PBS and the cell nucleus was living stained with DRAQ5 (Biostatus) following the standard protocol of the manufacturer. […] The images were analyzed by Image J 1.43 x program (developed by NIH, http://rsbweb.nih.gov/ij/).
(§4) To explore the capability of using TPS-DEVD-Pt-cRGD as a targeted drug delivery system and a drug induced apoptosis imaging probe in cancer cells. […] After 2 h of incubation, the cells were treated with cisplatin or staurosporine which both can activate the cell apoptosis and monitored with confocal microscopy. […] As the incubation time elapses, the fluorescence of U87-MG increases gradually with the cellular apoptotic progress, which reaches a maximum at 6 h. […]

[3] = system: apoptotic U87-MG cell lysate; assay: Fluorescence in apoptotic cell lysate (STS pretreated); type: biochemical, human; conditions: 5 μM probe, lysate of cells pretreated with STS 2 μM
Description: as §2

U87-MG cells = assay: Confocal imaging of drug-induced apoptosis, U87-MG; type: cell-based, human
Description: as §3, §4

Solubility in water = type: physicochemical; conditions: DMSO/PIPEs v/v=1/199
[4] = system: normal U87-MG cell lysate; assay: Fluorescence in normal cell lysate; type: biochemical, human; conditions: 5 μM probe, lysate of normal cells
Description: as §2

[5] = Effect of ionic strength (NaCl) on emission; type: physicochemical; conditions: NaCl 0 to 960 mM
From the text: We next studied the optical properties of our prodrug. The UV-vis absorption spectra of TPS-CH2N3 in THF and TPS-DEVD-Pt-cRGD in DMSO/PIPES (v/v=1/199) buffer were obtained. Both have similar absorption profiles with an obvious absorbance in the 320-440 nm range with a little blue shift after the modification of the AIE fluorogen. It is known that AIE fluorogen is non-fluorescent in good solvents but emits intensely in solid or as aggregates in poor solvents. […] As biosensing is often conducted in buffers, it is important to study the effect of ionic strength on the emission behavior of the prodrug. The experiments were performed with addition of sodium chloride into an aqueous solution of TPS-DEVD-Pt-cRGD (10 μM). […] TPS-DEVD-Pt-cRGD and its reduction product maintain an “off” state in the complex environment and thus have great potential to serve as a specific light-up apoptosis sensor for drug effect study with minimum background interference.
The photoluminescence (PL) spectra of TPE-CH2NH2 and TPE-SS-D5-cRGD in DMSO and phosphate buffered saline (PBS, pH=7.4) mixtures (v/v=1/199) are shown in FIG. 13A. […] [12] The TPE-SS-D5-cRGD probe is almost non-fluorescent in the same medium (Φ=0.001), due to the easy intramolecular rotations of the TPE phenyl rings in aqueous media. […]

[6] = biological target: T1, recombinant human caspase-3 (Homo sapiens, UniProt P42574); assay: Enzymatic assay: fluorescence light-up on DEVD cleavage by caspase-3; type: biochemical
T1 construct: purchased R&D Systems
T1 sequence (P42574 29-175 limits assumed): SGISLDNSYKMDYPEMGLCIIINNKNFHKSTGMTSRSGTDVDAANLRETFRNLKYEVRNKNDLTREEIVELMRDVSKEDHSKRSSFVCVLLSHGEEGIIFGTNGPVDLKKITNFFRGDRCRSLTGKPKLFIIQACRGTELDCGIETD
T1 sequence (P42574 176-277 limits assumed): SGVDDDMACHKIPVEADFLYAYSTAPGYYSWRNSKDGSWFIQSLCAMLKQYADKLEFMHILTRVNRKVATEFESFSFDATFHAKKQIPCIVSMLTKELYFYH
Description: DMSO stock solutions of TPS-DEVD-Pt-cRGD were diluted with a mixture of DMSO and PIPES (v/v=1/199) to 10 μM. Next, each probe was incubated with ascorbic acid or caspase-3 at room temperature and the change of fluorescence intensity was measured. The PL spectra were collected from 420 to 650 nm under an excitation wavelength at 365 nm.
To study the enzymatic response of TPS-DEVD-COOH, we performed in vitro enzymatic assays with recombinant human caspase-3. Mixtures of the ascorbic acid pretreated prodrug (10 μM) and caspases-3 (200 pM) were prepared and incubated in PIPES buffer. After 1 h incubation, the PL spectra were measured in the range from 425 to 650 nm.
The fluorescence change of the TPS-DEVD-Pt-cRGD solution (10 μM) upon addition of ascorbic acid and caspase-3 enzyme was also monitored over time in a mixture of DMSO/PIPEs (v/v=1/199) buffer. […] We further studied the effect of caspase-3 concentration on the solution emission.

MCF-7 cells [7] = assay: Confocal imaging of drug-induced apoptosis, MCF-7; type: cell-based; conditions: 5 μM probe, 6 h incubation, low integrin expression
Description: as §3, §4

Which cytotoxicity (MDA-MB-231 cells) does the source give for `N=C(N)NCCC[C@@H]1NC(=O)[C@H](CCCCNC(=O)[C@H](CC(=O)O)NC(=O)[C@H](CC(=O)O)NC(=O)[C@H](CC(=O)O)NC(=O)[C@H](CC(=O)O)NC(=O)[C@H](CC(=O)O)NC(=O)CCCCCCC(=O)NCCCC[n+]2ccc(/C=C/c3ccc(C(=C(c4ccccc4)c4ccccc4)c4ccccc4)cc3)cc2)NC(=O)[C@@H](Cc2ccccc2)NC(=O)[C@H](CC(=O)O)NC(=O)CNC1=O` [PyTPE-C6-D5-cRGD] here?
Its cytotoxicity is “do not show significant cytotoxicity”.

What about the cytotoxicity (MCF-7 cells [1]) of the same molecule?
The cytotoxicity was “do not show significant cytotoxicity”.

For `[NH3+][Pt-2]([NH3+])([Cl])([Cl])([O]C(=O)CCC(=O)NCCCC[n+]1ccc(/C=C/c2ccc(C(=C(c3ccccc3)c3ccccc3)c3ccccc3)cc2)cc1)[O]C(=O)CCC(=O)N[C@@H](CC(=O)O)C(=O)N[C@@H](CC(=O)O)C(=O)N[C@@H](CC(=O)O)C(=O)N[C@@H](CC(=O)O)C(=O)N[C@@H](CC(=O)O)C(=O)O` [PyTPE-Pt-D5], which cytotoxicity (MDA-MB-231 cells) is on record?
Its cytotoxicity is “do not show significant cytotoxicity”.

What about the cytotoxicity (MCF-7 cells [1]) of the same molecule?
The cytotoxicity was “do not show significant cytotoxicity”.

For `N=C(N)NCCC[C@@H]1NC(=O)[C@H](CCCCNC(=O)[C@H](CC(=O)O)NC(=O)[C@H](CC(=O)O)NC(=O)[C@H](CC(=O)O)NC(=O)[C@H](CC(=O)O)NC(=O)[C@H](CC(=O)O)NC(=O)CCC(=O)[O][Pt-2]([NH3+])([NH3+])([Cl])([Cl])[O]C(=O)CCC(=O)NCCCC[n+]2ccc(/C=C/c3ccc(C(=C(c4ccccc4)c4ccccc4)c4ccccc4)cc3)cc2)NC(=O)[C@@H](Cc2ccccc2)NC(=O)[C@H](CC(=O)O)NC(=O)CNC1=O` [PyTPE-Pt-D5-cRGD], which cytotoxicity (MDA-MB-231 cells) is on record?
The cytotoxicity was “much more obvious”.

And the cytotoxicity (MCF-7 cells [1])?
The cytotoxicity was “minimum toxicity”.

Which “optical response to ALP” value (ALP) does the source give for `CN(C)c1ccc(/C=C/C(=O)c2ccccc2OP(=O)(O)O)cc1` [probe-1] here?
Its value is “distinct optical response”.

For `CC(C)[C@H](NC(=O)[C@H](CCC(=O)O)NC(=O)[C@H](CC(=O)O)NC(=O)CCC(=O)[O][Pt-2]([NH3+])([NH3+])([Cl])([Cl])[O]C(=O)CCC(=O)NCCCC[C@@H]1NC(=O)[C@@H](Cc2ccccc2)NC(=O)[C@H](CC(=O)O)NC(=O)CNC(=O)[C@H](CCCNC(=N)N)NC1=O)C(=O)N[C@@H](CC(=O)O)C(=O)N[C@@H](Cc1cn(Cc2ccc(C3=C(c4ccccc4)C(c4ccccc4)=C(c4ccccc4)[Si]3(C)C)cc2)nn1)C(N)=O` [TPS-DEVD-Pt-cRGD], which “fluorescence intensity with other proteins” value [2] is on record?
Its value is “remain low”.

What about the cell fluorescence (293T cells) of the same molecule?
Its cell fluorescence is “weak fluorescence signal”.

What about the “fluorescence intensity at 485 nm over time” value [3] of the same molecule?
Its value is “increases quickly”.

What about the “incubation time at which cell fluorescence reaches maximum” value (U87-MG cells; 5 μM probe, real-time imaging) of the same molecule?
The value was 6 h.

And the “cell fluorescence after pretreatment with free cRGD or/and caspase-3 inhibitor” value (U87-MG cells; cRGD 50 μM or inhibitor 5 μM before probe)?
The value was “weak fluorescence”.

What about the solubility in water (Solubility in water) of the same molecule?
The solubility in water was “good solubility in water”.

And the “fluorescence intensity at 485 nm (stability to cellular proteins)” value [4]?
Its value is “minimum change”.

And the “change of fluorescence with NaCl” value [5]?
Its value is “Almost no change”.

And the “fluorescence increase over intrinsic emission with caspase-3” value ([6]; 10 μM probe pretreated with ascorbic acid, DMSO/PIPES v/v=1/199, PL at 485 nm, 60 min)?
The value was 28 fold.

What about the “time to fluorescence plateau after caspase-3 addition” value ([6]; 10 μM probe, ascorbic acid and caspase-3, DMSO/PIPES v/v=1/199) of the same molecule?
Its value is 60 min.

And the “detection limit for caspase-3” value ([6]; three times sigma method, 10 μM probe, 1 h)?
Its value is 1 pM.

And the cell fluorescence (MCF-7 cells [7])?
The cell fluorescence was “weak fluorescence signal”.

With `COC[C@@H]1CCCN1S(=O)(=O)c1ccc2c(c1)C(=O)C(=O)N2` [5-[(S)-(+)-2-(methoxymethyl)pyrrolidino]sulfonylisatin, reference compound] as the molecule, how does the “effect of inhibitor pretreatment on caspase-3 induced probe fluorescence” value ([6]; ascorbic acid pretreated TPS-DEVD-Pt-cRGD 10 μM, caspase-3 200 pM, inhibitor 10 μM) read?
The value was “most of the fluorescence is readily competed away”.
